# Laboratory results taken from patent publication US20150259331A1, “PROTOZOAN PARASITE GROWTH INHIBITORS” (Northeastern University, priority 2014, published 2015).
# Assays:
# [1] = test system: T. cruzi; assay: T. cruzi growth inhibition; assay type: cell-based, Trypanosoma cruzi; conditions: Trypanosoma cruzi
# [2] = test system: T. brucei brucei CA427; assay: Drug efficacy in a mouse model of human African trypanosomiasis
# Source text: The kinetoplast and nucleus can be tracked by microscopy during the cell cycle, which begins with trypanosomes harboring one nucleus (1N) and one kinetoplast (1K) (i.e., 1K1N cells). A kinetoplast that is replicating its (DNA) (i.e., kDNA) and increasing the organelle's mass is observed as an elongated kinetoplast (1Ke). Fission (segregation) of 1Ke kinetoplasts into two daughter kinetoplasts (2K) inside the same cell is coincident with the nuclear S-phase and produces 2K1N trypanosomes. Mitosis then occurs, yielding trypanosomes containing two kinetoplasts and two nuclei (2K2N). Following cell division, each daughter trypanosome has a 1K1N configuration of the organelles.
# Swiss Webster (female) mice, aged 8-10 weeks, were intraperitoneally inoculated with 10^3 T. brucei CA427 strain using a 1 ml hypodermic syringe and 26G ½″ needle (day 0). The mice were assigned to control or NEU617 -treated groups (four per group). Treatment was initiated one-day post infection for two weeks. Control group received the vehicle only. Drug-treated mice were given 10 mg/kg NEU617 twice daily at 12 h interval (orally or intraperitoneally) based on their body weights. NEU617 was reconstituted in (i) DMSO for intraperitoneal (I.P.) administration, and (ii) N-methyl-2-pyrrolidone and polyethylene glycol 300 (1:9, v/v) for oral (P.O.) dosing. Drugs were prepared fresh daily and the concentration was adjusted so that the animals received <200 μl of solvent/dose/animal. […] Further dilutions of blood were made with bicine-buffered saline with glucose, as needed. Animals showing distress symptoms at any stage of the study were euthanized. All experiments were conducted following protocols approved by the Institutional Animal Care and Use Committee (IACUC).
# [3] = test system: L. major amastigote; assay: L. major amastigote assay; assay type: cell-based; conditions: Leishmania major
# [4] = Thermodynamic aqueous solubility; assay type: physicochemical
smiles,measurement,setting,value
"Fc1cccc(COc2ccc(Nc3ncnc4ccc(-c5cccc(N6CCOCC6)c5)cc34)cc2Cl)c1 [Compound 23a, N-(3-Chloro-4-((3-fluorobenzyl)oxy)phenyl)-6-(3-morpholinophenyl)quinazolin-4-amine]",EC50,[1],1.8 µM
same,delay of detection of trypanosomes in the blood,[2]; 10 mg/kg twice per day ip,24 h
same,survival on day 8,"[2]; 10 mg/kg twice per day ip, all untreated mice had died",all alive
same,mouse survival life span,"[2]; 10 mg/kg twice per day ip, control group 5 days",9 days
same,time without parasites detected in the blood of infected mice,"[2]; 40 mg/kg once per day from 24 h after infection, control positive on day 2",3 days
same,drug-related toxicity,[2]; multiday regimen at 40 mg/kg,drug-related toxicity was observed
same,EC50,[3],8 µM
same,Human liver microsomes median CLint,,63.03 µL/min/mg
same,Solubility,[4],<1 µM
